Where a name gives a salt, the structure may show the parent alone.
Assays:
Format in all cases: physicochemical
[1] = Determination of the solubility of dasatinib salts (shake flask 37° C., HPLC); details: 6 hour shaking, 18 hour sedimentation
Protocol: Considering the above mentioned facts our solubility measurements were carried out on three different pH values (pH 1, pH 4.5 and pH 6.8).
Determination of the Solubility of Dasatinib Salts (Measurement Conditions)
Preparation of Sample Mixture:
• 100 mg of dasatinib salt are weighed in a 20 ml Erlenmeyer flask whereupon 10 ml of medium are added and it is shaked for 6 hours at a temperature of 37° C. on 100 rpm. After sedimentation for 18 hours at a temperature of 37° C. the settled solution is filtered through a sieve with 0.45 μm pores and the solution is diluted up to 20 ml with medium.

[2] = Water adsorption, DVS (dynamic vapor sorption) analysis; details: after drying
Text: As it is disclosed in WO2007/035874 paragraph [0096] dasatinib mono HCl includes a cavity or channel, which may be partially or fully occupied by solvent or a mixture of solvent. […] Further salts disclosed in the prior art also contain solvent adsorbed on the surface or in the form of solvate. These forms are nor suitable for pharmaceutical application. […] Therefore we carried out our comparative experiments between dasatinib base monohydrate and the new salts of the present invention.

[3] = Storage stability test: quantity of impurities by HPLC and change thereof
Text: In course of the thermal stress test and the forced stability test the decompositions in a pharmaceutical composition occurring during storage are constructed essentially in an accelerated manner. […] The advantageous properties of the new dasatinib salts of the present invention are significant from the point of view of the formulation of pharmaceutical compositions, the storage and the minimization of the harmful effects exerted in the human body.
The stability of the new dasatinib salts of the present invention were subjected to detailed tests.
Our results regarding the quantity of the impurities and change thereof are shown in the tables below (expressed in percentage).
Measuring conditions are the same as the determination of purity profile below.
Determination of the Impurities of Dasatinib Salts by HPLC (Measurement Conditions)

[4] = 3 week, 40° C./70% RH, listed as Anhydrous dasatinib p-toluenesulfonic acid (1:1) salt Form I

| SMILES | solubility ([1]; pH = 4.5 phosphate buffer) | solubility ([1]; pH = 6.8 phosphate buffer) | solubility ([1]; 0.1M HCl (pH 1)) | further results |
| --- | --- | --- | --- | --- |
| Cc1nc(Nc2ncc(C(=O)Nc3c(C)cccc3Cl)s2)cc(N2CCN(CCO)CC2)n1 [dasatinib mesilate (1:2), N-(2-Chloro-6-methylphenyl)-2-[6-[4-(2-hydroxyethyl)piperazin-1-yl]-2-methylpyrimidin-4-ylamino]-1,3-thiazole-5-carboxamide] | 805 µg/mL | 17 µg/mL | – | – |
| Cc1nc(Nc2ncc(C(=O)Nc3c(C)cccc3Cl)s2)cc(N2CCN(CCO)CC2)n1 [dasatinib mono HCl salt, N-(2-Chloro-6-methylphenyl)-2-[6-[4-(2-hydroxyethyl)piperazin-1-yl]-2-methylpyrimidin-4-ylamino]-1,3-thiazole-5-carboxamide] | – | – | – | water adsorption property (in words) [2]: changeable, especially after drying |
| Cc1nc(Nc2ncc(C(=O)Nc3c(C)cccc3Cl)s2)cc(N2CCN(CCO)CC2)n1 [dasatinib tosilate (1:1) Form I anhydrate] [N-(2-Chloro-6-methylphenyl)-2-[6-[4-(2-hydroxyethyl)piperazin-1-yl]-2-methylpyrimidin-4-ylamino]-1,3-thiazole-5-carboxamide] | 4510 µg/mL | – | 5365 µg/mL | Impurity, unnamed, RT 15.5 ([3]; 3 week, 25° C./90% RH): 0.03%; Impurity Summary (%) ([3]; 3 week, 25° C./90% RH, listed as Anhydrous dasatinib p-toluenesulfonic acid (1:1) salt Form I): 0.03%; Impurity Ethylene-diamine intermedier (RT 9.0-9.3) [3, 4]: 0.03%; Impurity Summary (%) [3, 4]: 0.03%; Impurity, unnamed, RT 15.5 ([3]; starting sample): 0.03%; Impurity Summary (%) ([3]; starting sample, listed as Anhydrous dasatinib p-toluenesulfonic acid (1:1) salt Form I): 0.03%; stability in the storage tests (in words) ([3]; storage tests carried out under various conditions, thermal stress and forced stability tests, listed as anhydrous dasatinib p-toluenesulfonic acid (1:1) salt Form I): particularly stable |

Continued, in another order:

| solubility ([1]; pH = 4.5 phosphate buffer) | solubility ([1]; pH = 6.8 phosphate buffer) | solubility ([1]; 0.1M HCl (pH 1)) | SMILES | further results |
| --- | --- | --- | --- | --- |
| 2805 µg/mL | 11 µg/mL | 5702 µg/mL | Cc1nc(Nc2ncc(C(=O)Nc3c(C)cccc3Cl)s2)cc(N2CCN(CCO)CC2)n1 [dasatinib tosilate (1:1) Form II anhydrate] [N-(2-Chloro-6-methylphenyl)-2-[6-[4-(2-hydroxyethyl)piperazin-1-yl]-2-methylpyrimidin-4-ylamino]-1,3-thiazole-5-carboxamide] | – |
| 1641 µg/mL | 10 µg/mL | 4898 µg/mL | Cc1nc(Nc2ncc(C(=O)Nc3c(C)cccc3Cl)s2)cc(N2CCN(CCO)CC2)n1 [dasatinib tosilate (1:1) dihydrate, N-(2-Chloro-6-methylphenyl)-2-[6-[4-(2-hydroxyethyl)piperazin-1-yl]-2-methylpyrimidin-4-ylamino]-1,3-thiazole-5-carboxamide] | – |
